These results are taken from article PMC12040169 (PLOS Biology, 2025).

Structures are written as SMILES.

A short description of the first series: in vitro. The following applies: human, hela cells.
For `CN(C)[C@@H]1C[C@H](C2(c3ccccc3)OCCO2)CC[C@H]1N(C)C(=O)Cc1ccc(Cl)c(Cl)c1` [CBK016338], the viability at 28.5 h, 10 µM was determined as 87.8%.

The series is the same for the next values; noted with them: human, hela cells, % viability.
Take `CN(C(=O)C1CCN(C(=O)c2ccoc2)CC1)C(c1ccc(F)cc1)c1ccccn1` (stereo not shown) [CBK060206]: the viability at 28.5 h, 10 µM was 91.5%.

For `COC(=O)c1ccc2c(=O)n(CC3CCCO3)c(SC)nc2c1` (stereo not shown) [CBK304535], the viability at 28.5 h, 10 µM came to 108%.

`CS(=O)(=O)c1ccc(Nc2ccc3c(c2)COC2(CCN(C(=O)Cc4ccc(F)cc4F)C2)O3)cc1` (stereo not shown) [CBK131948]: the viability at 28.5 h, 10 µM amounted to 90.8%.

Regarding `CCC1CC(C(F)(F)F)n2ncc(C(=O)O)c2N1` (stereo not shown) [CBK286893], the viability at 28.5 h, 10 µM worked out at 85.2%.

In the case of `COCC(=O)N1CCC(c2onc3c2CC(C)CC3)CC1` (stereo not shown) [CBK284599], the viability at 28.5 h, 10 µM came out at 89.9%.

For `O=S(=O)(NCCc1nc2ccccc2[nH]1)c1ccc(Cl)c(Cl)c1` [CBK264416], the viability at 28.5 h, 10 µM is 93.5%.

As to `O=C(O)c1ccc(C(=O)Nc2ccc3c(=O)n4c(nc3c2)/C(=C/c2ccccc2)CC4)cc1` [CBK013048], the viability at 28.5 h, 10 µM is 82.3%.

On to `COc1ccc(S(=O)(=O)N2CCC(C(=O)N3CCN(Cc4ccc5c(c4)OCO5)CC3)CC2)cc1Cl` [CBK267614], for which the viability at 28.5 h, 10 µM came to 86%.

As for `COc1ccc(-c2cc3nnc(C)nc3s2)cc1` [CBK025638], the viability at 28.5 h, 10 µM is 107%.

Regarding `O=C(O)[C@H](Cc1ccccc1)Nc1ncnc2[nH]cnc12` [CBK287090], the viability at 28.5 h, 10 µM was found to be 87%.

For the compound `Cn1ncc(N2CCC(CNC(=O)c3ccccc3Cl)C2)cc1=O` (stereo not shown) [CBK306747], the viability at 28.5 h, 10 µM was 95.2%.

Take `O=C(CCc1ccccc1)NC(=S)Nc1ccc(-c2nc3ccccc3[nH]2)cc1` [CBK267472]: the viability at 28.5 h, 10 µM was determined as 77.1%.

Turning to `Cc1occc1-c1nnc(SCC(=O)Nc2cccc3nsnc23)o1` [CBK268979], the viability at 28.5 h, 10 µM worked out at 89.5%.

Regarding `CCOC(=O)c1ccc(/N=C2/NC(=O)/C(=C\c3ccccc3OCC(=O)O)S2)cc1` [CBK265658], the viability at 28.5 h, 10 µM is 101%.

With `CCc1c(C(=O)NCc2cccnc2-n2cncn2)cnn1-c1ccc(OC)nn1` [CBK298309], the viability at 28.5 h, 10 µM came out at 90.5%.

Turning to `Cc1nc(NCCc2cnc(=O)n(C)c2O)cc(C2CCOC2)n1` (stereo not shown) [CBK307559], the viability at 28.5 h, 10 µM was found to be 93.2%.

`COC(=O)c1sc2ncccc2c1NS(=O)(=O)c1cc(Br)c(Cl)s1` [CBK049973]: the viability at 28.5 h, 10 µM came out at 112%.

As for `O=C(c1ccno1)N1CCc2ccccc21` [CBK200409], the viability at 28.5 h, 10 µM was determined as 104%.

With `CCN(CC(=O)NCc1ccncc1)S(=O)(=O)c1ccccc1` [CBK269537], the viability at 28.5 h, 10 µM was 88.7%.

Take `Cc1cc(NS(=O)(=O)c2ccc(Oc3ccc(-c4ccccc4)cc3)nc2)no1` [CBK295343]: the viability at 28.5 h, 10 µM was 90.8%.

In the case of `COc1ccc(C2(NC(=O)c3cnn(C)c3C)CCCCC2)cc1` [CBK283731], the viability at 28.5 h, 10 µM amounted to 84.8%.

Consider `CC(=O)Nc1cccc2c1NSN2` [CBK027082], for which the viability at 28.5 h, 10 µM worked out at 92.1%.

Take `Cc1ccc(CC(=O)Nc2nc(Cc3n[nH]c(=S)n3C)cs2)cc1` [CBK296766]: the viability at 28.5 h, 10 µM came to 90.5%.

Take `CCOC(=O)c1c(-c2ccc(C)o2)csc1NC(=O)CN1C(=O)c2ccccc2C1=O` [CBK267699]: the viability at 28.5 h, 10 µM came to 85.1%.

For the compound `O=C(c1ccccc1)c1ccc2[nH]c(-c3ccc(NC(=O)c4ccccc4Cl)cc3)nc2c1` [CBK262706], the viability at 28.5 h, 10 µM is 83.7%.

Turning to `COc1ccc2cnc(C3CCCN(C(=O)C4CC4)C3)cc2c1C` (stereo not shown) [CBK284716], the viability at 28.5 h, 10 µM was 90.8%.

On to `CC1CCN(S(=O)(=O)c2ccc(NC(=O)C3=COCCO3)cc2)CC1` [CBK295332], for which the viability at 28.5 h, 10 µM stood at 102%.

In the case of `O=C(O)CCC(=O)Nc1ccccc1C(=O)N1CCCCCC1` [CBK269863], the viability at 28.5 h, 10 µM came out at 86.3%.

For the compound `COc1ccc(C(=O)N[C@H]2C[C@H]3C(=O)Nc4ccc(-c5ccsc5)cc4C(=O)N3C2)cc1` [CBK289362], the viability at 28.5 h, 10 µM came to 91.7%.

As for `O=C(NCCc1c[nH]cn1)Nc1cccc(C(F)(F)F)c1` [CBK269822], the viability at 28.5 h, 10 µM amounted to 105%.

For the compound `COc1cc(CNc2cncc(-c3cccc(C(=O)NCCO)c3)n2)cc(OC)c1OC` [CBK065421], the viability at 28.5 h, 10 µM was determined as 98.5%.

For the compound `O=C1CC(c2ccc3c(c2)OCO3)c2ccc3ccccc3c2N1` (stereo not shown) [CBK087469], the viability at 28.5 h, 10 µM is 95.8%.

As for `Cc1ccc2oc(-c3cc(NC(=O)Cn4cnc5c(=O)n(C)c(=O)n(C)c54)ccc3O)nc2c1` [CBK267112], the viability at 28.5 h, 10 µM came out at 95.1%.

For the compound `O=C(c1cc(-c2cccc(Br)c2)nc2ccccc12)N1CCN(C/C=C/c2ccccc2)CC1` [CBK262633], the viability at 28.5 h, 10 µM is 100%.

In the case of `CCOC(=O)[C@H]1CN(C(=O)C(C)(C)NC(=O)OC(C)(C)C)C[C@@H]1c1cc2cc(C)ccc2o1` [CBK001599], the viability at 28.5 h, 10 µM is 91.1%.

Regarding `Cc1nn(C)cc1S(=O)(=O)Nc1ccc2c(ccn2C)c1` [CBK282806], the viability at 28.5 h, 10 µM turned out to be 77.4%.

In the case of `CCCC(=O)NC(c1ccc(OC)cc1)c1cc(Cl)c2cccnc2c1O` (stereo not shown) [CBK293944], the viability at 28.5 h, 10 µM amounted to 87.4%.

Take `CS(=O)(=O)Nc1nccnc1OC1CCNCC1` [CBK074265T]: the viability at 28.5 h, 10 µM turned out to be 90.6%.

As to `O=C(Cn1nc2n(c1=O)CCCC2)NCc1ccccc1Cl` [CBK304647], the viability at 28.5 h, 10 µM amounted to 104%.

For the compound `CC(NC1CCN(Cc2ccccc2)CC1)C12CC3CC(CC(c4ccc(Cl)cc4)(C3)C1)C2` (stereo not shown) [CBK262877], the viability at 28.5 h, 10 µM was found to be 90.1%.

As for `O=C(NCCCNC1CCc2[nH]c3ccccc3c2C1)c1cccc(Br)c1` (stereo not shown) [CBK107130T], the viability at 28.5 h, 10 µM came to 86.9%.

Consider `Cc1ccccc1OCCNS(=O)(=O)c1cccc([N+](=O)[O-])c1` [CBK264195], for which the viability at 28.5 h, 10 µM is 106%.

Take `CC(Cc1c[nH]c2ccccc12)NC(=O)CSS(=O)(=O)O` (stereo not shown) [CBK260942N]: the viability at 28.5 h, 10 µM worked out at 93.3%.

As for `CN(C)C(=O)Cc1ccc(Cn2ccnc(N3CCC(Sc4ccccc4)CC3)c2=O)cc1` [CBK153652], the viability at 28.5 h, 10 µM came to 112%.

With `CCn1c(SCC(=O)Nc2c(Cl)cc(Cl)cc2Cl)nnc1-c1ccccc1F` [CBK268609], the viability at 28.5 h, 10 µM was 102%.

On to `OC(Cn1ccc2ccccc21)Cn1c(Cc2ccccc2)nc2ccccc21` (stereo not shown) [CBK267954], for which the viability at 28.5 h, 10 µM was 97.7%.

Turning to `CCCn1nnn(-c2cc(OCCOCC)c(Cl)cc2Cl)c1=O` [CBK026016], the viability at 28.5 h, 10 µM is 99%.

In the case of `Cc1ccc2c(c1)cc(C(=O)N1CCOC(C(=O)N3CCc4ccccc4C3)C1)n2C` (stereo not shown) [CBK286035], the viability at 28.5 h, 10 µM amounted to 93.8%.

On to `S=C(Cc1csc2ccccc12)NC1CCCCC1` [CBK023515], for which the viability at 28.5 h, 10 µM came out at 88.7%.

As for `Cc1cccc(OCC(=O)N2CCN(Cc3ccccn3)CC2)c1` [CBK134023G], the viability at 28.5 h, 10 µM came out at 92.3%.

In the case of `Cc1ccc(NS(=O)(=O)c2cc(C(=O)Nc3cccc(N(C)S(C)(=O)=O)c3)ccc2C)c(C)c1` [CBK268220], the viability at 28.5 h, 10 µM turned out to be 92.7%.

Turning to `Cc1ccc(OC2(C(=O)N3CCCC3c3nccs3)CCNCC2)cc1` (stereo not shown) [CBK307539], the viability at 28.5 h, 10 µM amounted to 94.6%.

Still in this series, the particulars now being: human, hela cells, % viability, bulk resorufin, single well.
On to `Cc1cccc(N2C(=O)/C(=C/c3ccccc3OCc3ccc(C(=O)O)cc3)C(=O)NC2=S)c1` [CBK264100], for which the viability at 28.5 h, 10 µM is 95.3%.

For the compound `Cc1ccc(Cn2nc(NC(=O)Oc3ccccc3)c3ccccc32)cc1` [CBK048407], the viability at 28.5 h, 10 µM stood at 84.2%.

What is called viability is a read-out of living cells in per cent, often relative to untreated cells.
